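Compound exposure: 48 hours, 5 concentrations, 96-well plates. The concentration for 50% growth inhibition is given as GI50. Definition used: TGI = concentration required for complete inhibition of growth.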
Key:
Test in all cases: NCI-60 cell line screen, 48 h
K-562 leukemia = tested on: K-562 leukemia
NCI-H226 lung = tested on: NCI-H226 lung
SK-MEL-2 melanoma = tested on: SK-MEL-2 melanoma
IGROV1 ovarian = tested on: IGROV1 ovarian
M14 melanoma = tested on: M14 melanoma
MALME-3M melanoma = tested on: MALME-3M melanoma
OVCAR-8 ovarian = tested on: OVCAR-8 ovarian
COLO 205 colon = tested on: COLO 205 colon
HCT-15 colon = tested on: HCT-15 colon
SF-295 CNS = tested on: SF-295 CNS
NCI-H23 lung = tested on: NCI-H23 lung
A498 renal = tested on: A498 renal
NCI-H460 lung = tested on: NCI-H460 lung
SNB-75 CNS = tested on: SNB-75 CNS
NCI/ADR-RES ovarian = tested on: NCI/ADR-RES ovarian
SK-MEL-28 melanoma = tested on: SK-MEL-28 melanoma
OVCAR-3 ovarian = tested on: OVCAR-3 ovarian
DU-145 prostate = tested on: DU-145 prostate
HT29 colon = tested on: HT29 colon
BT-549 breast = tested on: BT-549 breast
PC-3 prostate = tested on: PC-3 prostate
SK-OV-3 ovarian = tested on: SK-OV-3 ovarian
KM12 colon = tested on: KM12 colon
MOLT-4 leukemia = tested on: MOLT-4 leukemia
MDA-MB-231 breast = tested on: MDA-MB-231 breast
U251 CNS = tested on: U251 CNS
OVCAR-4 ovarian = tested on: OVCAR-4 ovarian
LOX IMVI melanoma = tested on: LOX IMVI melanoma
TK-10 renal = tested on: TK-10 renal
CCRF-CEM leukemia = tested on: CCRF-CEM leukemia
HS 578T breast = tested on: HS 578T breast
CAKI-1 renal = tested on: CAKI-1 renal
MDA-MB-435 = tested on: MDA-MB-435
OVCAR-5 ovarian = tested on: OVCAR-5 ovarian
A549 NSCLC = tested on: A549 NSCLC
SN12C renal = tested on: SN12C renal
HOP-62 NSCLC = tested on: HOP-62 NSCLC
NCI-H522 lung = tested on: NCI-H522 lung
786-0 renal = tested on: 786-0 renal
HCT-116 colon = tested on: HCT-116 colon
SF-268 CNS = tested on: SF-268 CNS
RXF 393 renal = tested on: RXF 393 renal
HCC-2998 colon = tested on: HCC-2998 colon
SK-MEL-5 melanoma = tested on: SK-MEL-5 melanoma
EKVX NSCLC = tested on: EKVX NSCLC
RPMI-8226 leukemia = tested on: RPMI-8226 leukemia
SW-620 colon = tested on: SW-620 colon
T-47D breast = tested on: T-47D breast
UACC-257 melanoma = tested on: UACC-257 melanoma
HOP-92 NSCLC = tested on: HOP-92 NSCLC
SNB-19 CNS = tested on: SNB-19 CNS
UO-31 renal = tested on: UO-31 renal
MCF7 breast = tested on: MCF7 breast
HL-60(TB) leukemia = tested on: HL-60(TB) leukemia
ACHN renal = tested on: ACHN renal
SF-539 CNS = tested on: SF-539 CNS
UACC-62 melanoma = tested on: UACC-62 melanoma

## COc1ccc(Cl)cc1Nc1nc(C(F)(F)F)ccc1C(=O)N/N=C/c1ccccc1Cl
K-562 leukemia
  GI50: 10.7 µM
  TGI: > 21.8 µM
NCI-H226 lung
  GI50: 1.45 µM
  TGI: 18.2 µM
SK-MEL-2 melanoma
  GI50: 3.45 µM
  TGI: > 28.4 µM
IGROV1 ovarian
  GI50: 2.76 µM
  TGI: > 24.7 µM
M14 melanoma
  GI50: 2.13 µM
  TGI: 19.4 µM
MALME-3M melanoma
  GI50: 1.75 µM
  TGI: 9.54 µM
OVCAR-8 ovarian
  GI50: 2.4 µM
  TGI: > 31 µM
COLO 205 colon
  GI50: 1.7 µM
  TGI: 4.18 µM
HCT-15 colon
  GI50: 0.754 µM
  TGI: > 63.8 µM
SF-295 CNS
  GI50: 0.27 µM
  TGI: 1.36 µM
NCI-H23 lung
  GI50: 2.99 µM
  TGI: > 31.4 µM
A498 renal
  GI50: 3.44 µM
  TGI: 19.5 µM
NCI-H460 lung
  GI50: 1.13 µM
  TGI: 4.53 µM
SNB-75 CNS
  GI50: 7.32 µM
  TGI: > 100 µM
NCI/ADR-RES ovarian
  GI50: 2.83 µM
  TGI: > 28.4 µM
SK-MEL-28 melanoma
  GI50: 4.5 µM
  TGI: > 100 µM
OVCAR-3 ovarian
  GI50: 1.04 µM
  TGI: 3.75 µM
DU-145 prostate
  GI50: 3.94 µM
  TGI: > 25.6 µM
HT29 colon
  GI50: 4.24 µM
  TGI: > 100 µM
BT-549 breast
  GI50: 1.79 µM
  TGI: 8.82 µM
PC-3 prostate
  GI50: 2.84 µM
  TGI: > 100 µM
SK-OV-3 ovarian
  GI50: 1.58 µM
  TGI: 12.5 µM
KM12 colon
  GI50: 2.81 µM
  TGI: > 28 µM
MOLT-4 leukemia
  GI50: 1.88 µM
MDA-MB-231 breast
  GI50: 2.09 µM
  TGI: 10.9 µM
U251 CNS
  GI50: 1.57 µM
  TGI: > 31 µM
OVCAR-4 ovarian
  GI50: 1.93 µM
  TGI: > 100 µM
LOX IMVI melanoma
  GI50: 1.64 µM
  TGI: 12.8 µM
TK-10 renal
  GI50: 0.442 µM
  TGI: 4.61 µM
CCRF-CEM leukemia
  GI50: 0.446 µM
  TGI: 2.79 µM
HS 578T breast
  GI50: 3.2 µM
  TGI: 40.7 µM
CAKI-1 renal
  GI50: 0.994 µM
  TGI: 8.19 µM
MDA-MB-435
  GI50: 2.61 µM
  TGI: > 27.7 µM
OVCAR-5 ovarian
  GI50: 3.55 µM
  TGI: 54 µM
A549 NSCLC
  GI50: 3.53 µM
  TGI: 18.5 µM
SN12C renal
  GI50: 2.56 µM
  TGI: > 100 µM
HOP-62 NSCLC
  GI50: 7.7 µM
  TGI: > 29.2 µM
NCI-H522 lung
  GI50: 2.74 µM
  TGI: 16 µM
786-0 renal
  GI50: 4.66 µM
  TGI: > 23 µM
HCT-116 colon
  GI50: 2.81 µM
  TGI: > 100 µM
SF-268 CNS
  GI50: 2.22 µM
  TGI: > 23.2 µM
RXF 393 renal
  GI50: 0.455 µM
  TGI: 3.06 µM
HCC-2998 colon
  GI50: 1.97 µM
  TGI: 19.2 µM
SK-MEL-5 melanoma
  GI50: 0.583 µM
  TGI: 2.96 µM
EKVX NSCLC
  GI50: 2.04 µM
  TGI: 7.22 µM
RPMI-8226 leukemia
  GI50: 2.17 µM
  TGI: 6.81 µM
SW-620 colon
  GI50: 3.3 µM
  TGI: > 100 µM
T-47D breast
  GI50: 1.71 µM
  TGI: 7.68 µM
UACC-257 melanoma
  GI50: 1.82 µM
  TGI: 4.62 µM
HOP-92 NSCLC
  GI50: 2.34 µM
  TGI: 12.6 µM
SNB-19 CNS
  GI50: 2.34 µM
  TGI: > 55.7 µM
UO-31 renal
  GI50: 3.18 µM
  TGI: > 26.8 µM
MCF7 breast
  GI50: 1.04 µM
  TGI: 5.34 µM
HL-60(TB) leukemia
  GI50: 2.74 µM
  TGI: > 19.7 µM
ACHN renal
  GI50: 2.01 µM
  TGI: > 25.4 µM
SF-539 CNS
  GI50: 1.85 µM
  TGI: 5.03 µM
UACC-62 melanoma
  GI50: 1.93 µM
  TGI: 9.83 µM

From PubChem BioAssay (NCI)
